Series [1] relates to Mus musculus. Description: Anticonvulsant activity in maximal electroshock induced seizure mouse model assessed as suppression in hindlimb tonic extension at 100 mg/kg, ip measured at 0.5 hrs post dose. Format: functional, organism-based. A general note: In the maximal electroshock model the usual endpoint is tonic extension of the hind limbs.
The test system of series [2] is Rattus norvegicus. The series is described as follows: Neurotoxicity in Sprague-Dawley rat assessed as behavioral change at 30 mg/kg, ip measured at 1 hr post dose. Format: toxicity, organism-based. Particulars: in vivo.
Series [3] relates to Rattus norvegicus. The series is described as follows: Anticonvulsant activity in po dosed pentylenetetrazole induced seizure Sprague-Dawley rat model assessed as no observable episode of clonic convulsion of at least 5 secs. The class given is functional.
The subject of series [4] is Mus musculus. The series is described as follows: Anticonvulsant activity in po dosed 6-Hz induced seizure mouse model assessed as restoration of normal activity within 10 secs from stimulation at 44 mA. The class given is functional.
The subject of series [5] is Rattus norvegicus. The series is described as follows: Anticonvulsant activity in maximal electroshock induced seizure Sprague-Dawley rat model assessed as suppression in hindlimb tonic extension at 30 mg/kg, ip measured at 1 hr post dose. Format: functional, organism-based.
Series [6] deals with Rattus norvegicus. The series is described as follows: Neurotoxicity in Sprague-Dawley rat assessed as behavioral change at 30 mg/kg, ip measured at 0.5 hrs post dose. The class given is toxicity, organism-based. Particulars: in vivo.
In series [7] the test system is Mus musculus. The series is described as follows: Anticonvulsant activity in po dosed maximal electroshock induced seizure mouse model assessed as suppression in hindlimb tonic extension by measuring time to peak effect. The class given is functional.
The subject of series [8] is Rattus norvegicus. The series is described as follows: Anticonvulsant activity in maximal electroshock induced seizure Sprague-Dawley rat model assessed as suppression in hindlimb tonic extension at 30 mg/kg, po measured at 1 hr post dose. Format: functional, organism-based.
In series [9] the target is Type-2 angiotensin II receptor (Homo sapiens) (UniProt P50052). Description: Displacement of [125I]CGP 42112A from human recombinant AT2 receptor expressed in HEK293 cells at 100 uM measured after 4 hrs by scintillation counting method relative to control. Format: cell-based. On the technique in general: Displacement assays read how much labelled ligand stays bound in the presence of the test substance.
Chain of Type-2 angiotensin II receptor (Homo sapiens) (P50052 whole entry): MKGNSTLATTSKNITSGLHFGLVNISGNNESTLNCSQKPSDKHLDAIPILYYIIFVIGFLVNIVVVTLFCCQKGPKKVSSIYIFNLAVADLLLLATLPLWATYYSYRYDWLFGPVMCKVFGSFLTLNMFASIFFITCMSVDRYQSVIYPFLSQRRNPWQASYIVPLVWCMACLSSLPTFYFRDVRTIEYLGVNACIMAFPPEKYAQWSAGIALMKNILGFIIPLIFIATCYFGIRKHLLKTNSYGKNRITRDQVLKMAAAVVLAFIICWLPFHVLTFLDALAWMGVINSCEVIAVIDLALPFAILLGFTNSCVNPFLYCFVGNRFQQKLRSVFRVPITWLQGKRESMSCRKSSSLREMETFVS

Series [10] has as its system Rattus norvegicus. Description: Neurotoxicity in Sprague-Dawley rat assessed as behavioral change at 30 mg/kg, ip measured at 2 hrs post dose. Particulars: in vivo. The class given is toxicity, organism-based.
Series [11] concerns Mus musculus. Description: Neurotoxicity in po dosed mouse assessed as induction of motor impairment by measuring time to peak effect by rotarod method. Particulars: in vivo. The class given is toxicity, organism-based.
Series [12] deals with Rattus norvegicus. The series is described as follows: Neurotoxicity in Sprague-Dawley rat assessed as behavioral change at 30 mg/kg, ip measured at 4 hrs post dose. Particulars: in vivo. The class given is toxicity, organism-based.
The nature of series [13]: Protection index, ratio of TD50 for neurotoxicity in po dosed Sprague-Dawley rat model to ED50 for po dosed pentylenetetrazole induced seizure Sprague-Dawley rat model. The class given is toxicity, organism-based. Particulars: in vivo, read-out: Ratio TD50/ED50.
Series [14] concerns Rattus norvegicus. Description: Neurotoxicity in Sprague-Dawley rat assessed as behavioral change at 30 mg/kg, ip measured at […] post dose. The class given is toxicity, organism-based. Particulars: in vivo.
Series [15] concerns Rattus norvegicus. The series is described as follows: Anticonvulsant activity in po dosed pentylenetetrazole induced seizure Sprague-Dawley rat model assessed as no observable episode of clonic convulsion of at least 5 secs by measuring time to peak effect. Format: functional.
Series [16] deals with Mus musculus. Description: Anticonvulsant activity in 6-Hz induced seizure mouse model assessed as restoration of normal activity within 10 secs from stimulation at 100 mg/kg, ip at 44 mA measured at […] post dose. Format: functional, organism-based.
The test system of series [17] is Mus musculus. The series is described as follows: Neurotoxicity in mouse assessed as induction of motor impairment at 100 mg/kg, ip measured at 0.5 hrs post dose by rotarod method. The class given is toxicity, organism-based. Particulars: in vivo. (In general: In the rotarod test animals must keep their balance on a rotating rod.)
For series [18], the target named is 5-hydroxytryptamine receptor 3A (Homo sapiens) (UniProt P46098). The series is described as follows: Displacement of [3H]BRL 43694 from human recombinant 5HT3 receptor expressed in CHO cells at 100 uM measured after 120 mins by scintillation counting method relative to control. Format: cell-based.
Chain of 5-hydroxytryptamine receptor 3A (Homo sapiens) (P46098 whole entry): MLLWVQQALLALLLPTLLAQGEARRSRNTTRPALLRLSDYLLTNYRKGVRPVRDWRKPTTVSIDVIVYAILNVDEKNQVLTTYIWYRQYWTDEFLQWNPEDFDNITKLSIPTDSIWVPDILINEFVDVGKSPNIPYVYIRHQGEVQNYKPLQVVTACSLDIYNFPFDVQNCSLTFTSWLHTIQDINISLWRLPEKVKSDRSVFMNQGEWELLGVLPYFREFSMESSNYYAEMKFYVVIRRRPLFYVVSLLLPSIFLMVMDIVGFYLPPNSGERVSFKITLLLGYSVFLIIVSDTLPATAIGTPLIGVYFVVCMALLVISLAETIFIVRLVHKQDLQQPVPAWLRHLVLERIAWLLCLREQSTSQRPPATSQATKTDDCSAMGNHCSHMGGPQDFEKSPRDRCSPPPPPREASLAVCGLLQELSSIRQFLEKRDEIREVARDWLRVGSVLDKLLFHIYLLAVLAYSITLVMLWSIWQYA
Series [19] relates to Rattus norvegicus. Description: Anticonvulsant activity in maximal electroshock induced seizure Sprague-Dawley rat model assessed as suppression in hindlimb tonic extension at 30 mg/kg, ip measured at […] post dose. The class given is functional, organism-based.
The species entered for series [20] is Rattus norvegicus. The series is described as follows: Displacement of [3H]a,b-MeATP from rat urinary bladder P2X receptor at 100 uM measured after 120 mins by scintillation counting method relative to control.
The test system of series [21] is Rattus norvegicus. The series is described as follows: Neurotoxicity in po dosed Sprague-Dawley rat assessed as behavioral change by measuring time to peak effect. Format: toxicity, organism-based. Particulars: in vivo.
The target of series [22] is Galanin receptor type 2 (Homo sapiens) (UniProt O43603). Description: Displacement of [125I]galanin from human recombinant GAL2 receptor expressed in CHO cells at 100 uM measured after 120 mins by scintillation counting method relative to control. Format: cell-based.
Chain of Galanin receptor type 2 (Homo sapiens) (O43603 whole entry): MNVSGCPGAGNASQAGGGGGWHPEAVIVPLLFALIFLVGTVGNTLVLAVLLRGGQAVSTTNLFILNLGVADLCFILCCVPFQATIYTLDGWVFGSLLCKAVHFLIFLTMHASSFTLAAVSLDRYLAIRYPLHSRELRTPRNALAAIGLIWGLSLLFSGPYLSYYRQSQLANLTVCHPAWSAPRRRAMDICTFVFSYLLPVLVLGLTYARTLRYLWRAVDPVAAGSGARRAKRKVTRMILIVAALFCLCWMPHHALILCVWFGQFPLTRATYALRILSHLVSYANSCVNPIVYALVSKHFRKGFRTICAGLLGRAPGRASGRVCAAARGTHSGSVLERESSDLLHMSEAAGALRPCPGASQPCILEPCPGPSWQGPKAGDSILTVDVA
For series [23], the system named is Rattus norvegicus. The series is described as follows: Anticonvulsant activity in maximal electroshock induced seizure Sprague-Dawley rat model assessed as suppression in hindlimb tonic extension at 30 mg/kg, ip measured at 0.5 hrs post dose. The class given is functional, organism-based.
In series [24] the target is Histamine H1 receptor (Homo sapiens) (UniProt P35367). The series is described as follows: Displacement of [3H]pyrilamine from human recombinant H1 receptor expressed in HEK293 cells at 100 uM measured after 60 mins by scintillation counting method relative to control. The class given is cell-based.
Chain of Histamine H1 receptor (Homo sapiens) (P35367 whole entry): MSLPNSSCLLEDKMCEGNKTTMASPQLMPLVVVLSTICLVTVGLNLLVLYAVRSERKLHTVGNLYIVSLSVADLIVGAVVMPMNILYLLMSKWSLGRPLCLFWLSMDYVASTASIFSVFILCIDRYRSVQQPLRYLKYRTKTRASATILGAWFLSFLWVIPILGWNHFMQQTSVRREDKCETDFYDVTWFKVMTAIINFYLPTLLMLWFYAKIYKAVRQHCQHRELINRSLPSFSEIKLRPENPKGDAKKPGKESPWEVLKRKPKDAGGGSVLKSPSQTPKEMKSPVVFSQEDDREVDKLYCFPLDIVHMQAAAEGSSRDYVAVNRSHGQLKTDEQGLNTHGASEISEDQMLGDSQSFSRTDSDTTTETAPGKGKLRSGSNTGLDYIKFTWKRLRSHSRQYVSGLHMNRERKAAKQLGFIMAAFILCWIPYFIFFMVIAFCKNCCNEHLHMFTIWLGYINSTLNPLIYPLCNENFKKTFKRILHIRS
In series [25] the target is Muscarinic acetylcholine receptor M1 (Homo sapiens) (UniProt P11229). The series is described as follows: Displacement of [3H]pirenzepine from human recombinant M1 receptor expressed in CHO cells at 100 uM measured after 60 mins by scintillation counting method relative to control. Format: cell-based.
Chain of Muscarinic acetylcholine receptor M1 (Homo sapiens) (P11229 whole entry): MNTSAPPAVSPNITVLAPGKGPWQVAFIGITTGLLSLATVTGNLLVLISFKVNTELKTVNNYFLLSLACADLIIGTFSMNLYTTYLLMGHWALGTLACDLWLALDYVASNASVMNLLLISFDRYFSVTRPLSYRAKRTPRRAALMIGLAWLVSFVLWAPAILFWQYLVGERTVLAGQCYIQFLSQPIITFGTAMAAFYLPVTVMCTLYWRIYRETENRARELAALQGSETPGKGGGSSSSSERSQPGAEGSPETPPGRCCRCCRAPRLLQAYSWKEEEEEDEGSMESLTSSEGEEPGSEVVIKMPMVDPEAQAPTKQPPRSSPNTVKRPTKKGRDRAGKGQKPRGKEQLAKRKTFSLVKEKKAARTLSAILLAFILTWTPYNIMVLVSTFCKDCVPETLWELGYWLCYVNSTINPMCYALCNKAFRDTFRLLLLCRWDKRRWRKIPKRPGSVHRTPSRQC
Series [26] deals with Neuropeptide Y receptor type 1 (Homo sapiens) (UniProt P25929). The series is described as follows: Displacement of [125I]peptide YY from Y1 in human SK-N-MC cells receptor at 100 uM measured after 120 mins by scintillation counting method relative to control. Format: cell-based.
Chain of Neuropeptide Y receptor type 1 (Homo sapiens) (P25929 whole entry): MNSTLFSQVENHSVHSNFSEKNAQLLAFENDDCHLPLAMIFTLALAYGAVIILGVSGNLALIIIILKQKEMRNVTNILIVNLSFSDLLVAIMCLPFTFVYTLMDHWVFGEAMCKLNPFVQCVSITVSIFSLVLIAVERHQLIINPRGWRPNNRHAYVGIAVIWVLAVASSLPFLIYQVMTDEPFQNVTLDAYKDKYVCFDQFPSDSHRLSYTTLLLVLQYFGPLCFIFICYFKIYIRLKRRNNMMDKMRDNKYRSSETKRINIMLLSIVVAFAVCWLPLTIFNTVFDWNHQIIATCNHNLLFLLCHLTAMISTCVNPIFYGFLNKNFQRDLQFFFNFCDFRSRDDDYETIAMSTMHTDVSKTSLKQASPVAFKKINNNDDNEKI
Series [27] concerns the target Muscarinic acetylcholine receptor M2 (Homo sapiens) (UniProt P08172). Description: Displacement of [3H]AF-DX384 from human recombinant M2 receptor expressed in CHO cells at 100 uM measured after 60 mins by scintillation counting method relative to control. The class given is cell-based.
Series [28] addresses Gastrin/cholecystokinin type B receptor (Homo sapiens) (UniProt P32239). The series is described as follows: Displacement of [125I]CCK-8s from human recombinant CCK2 receptor expressed in CHO cells at 100 uM measured after 60 mins by scintillation counting method relative to control. The class given is cell-based.
Series [29] concerns Rattus norvegicus. The series is described as follows: Anticonvulsant activity in maximal electroshock induced seizure Sprague-Dawley rat model assessed as suppression in hindlimb tonic extension at 30 mg/kg, po measured at 0.5 hrs post dose. Format: functional, organism-based.
Series [30] concerns Mus musculus. Description: Anticonvulsant activity in pentylenetetrazole induced seizure mouse model assessed as no observable episode of clonic convulsion of at least 5 secs at 100 mg/kg, ip measured at 0.5 hrs post dose. Format: functional, organism-based.
The subject of series [31] is Mus musculus. Description: Anticonvulsant activity in pentylenetetrazole induced seizure mouse model assessed as no observable episode of clonic convulsion of at least 5 secs at 300 mg/kg, ip measured at 4 hrs post dose. The class given is functional, organism-based.

Usually ED50 stands for the dose at which the effect has come halfway, by size or by number of responders. What is called inhibition is the drop in the measured response relative to a control, in per cent.

Activity calls are given as the source filed them. The rule behind the calls is not given here.

Chain of Muscarinic acetylcholine receptor M2 (Homo sapiens) (P08172 whole entry): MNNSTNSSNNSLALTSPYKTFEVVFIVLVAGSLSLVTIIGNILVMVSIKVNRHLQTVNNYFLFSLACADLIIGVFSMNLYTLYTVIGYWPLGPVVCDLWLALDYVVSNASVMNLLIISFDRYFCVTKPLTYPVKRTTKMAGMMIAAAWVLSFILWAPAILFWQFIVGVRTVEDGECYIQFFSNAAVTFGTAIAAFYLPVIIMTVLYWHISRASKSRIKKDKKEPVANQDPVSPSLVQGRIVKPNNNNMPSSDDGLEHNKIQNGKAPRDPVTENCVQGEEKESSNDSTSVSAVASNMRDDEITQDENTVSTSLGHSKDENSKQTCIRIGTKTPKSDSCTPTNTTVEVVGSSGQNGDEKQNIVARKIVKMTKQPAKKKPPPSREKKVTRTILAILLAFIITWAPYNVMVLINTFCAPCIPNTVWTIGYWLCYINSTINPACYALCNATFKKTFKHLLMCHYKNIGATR
Chain of Gastrin/cholecystokinin type B receptor (Homo sapiens) (P32239 whole entry): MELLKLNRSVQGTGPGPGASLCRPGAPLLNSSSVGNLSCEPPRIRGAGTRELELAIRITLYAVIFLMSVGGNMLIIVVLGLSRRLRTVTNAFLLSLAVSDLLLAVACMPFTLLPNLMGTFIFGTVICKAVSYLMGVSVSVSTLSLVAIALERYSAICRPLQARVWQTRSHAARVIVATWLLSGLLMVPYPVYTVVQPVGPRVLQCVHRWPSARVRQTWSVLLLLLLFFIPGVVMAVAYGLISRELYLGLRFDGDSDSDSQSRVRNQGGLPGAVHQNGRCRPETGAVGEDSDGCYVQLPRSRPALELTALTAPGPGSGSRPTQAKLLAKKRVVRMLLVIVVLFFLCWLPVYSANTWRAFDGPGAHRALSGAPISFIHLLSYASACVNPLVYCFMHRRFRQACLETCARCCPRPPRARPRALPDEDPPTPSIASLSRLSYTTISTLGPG

With `Cc1ccccc1/C=C/C(=O)N[C@@H](C)CO`, the result in the series on Mus musculus [1], in the series on Rattus norvegicus [5] and in the series on Rattus norvegicus [8] was Active. Besides, the Activity result with Rattus norvegicus [2], with Rattus norvegicus [6], in the series on Rattus norvegicus [10], in the series on Rattus norvegicus [12] and in the series on Rattus norvegicus [14] was “Non-Toxic” in each case. Besides, the figures for the ED50 in the series with Rattus norvegicus [3] and in the series on Mus musculus [4] were 69.6 mg/kg and 74.1 mg/kg, respectively. Also, the figures for the Time in the series with Mus musculus [7], in the series on Mus musculus [11] and in the series on Rattus norvegicus [15] were 0.5 h, 0.25 h and 1 h, respectively. Moreover, in series [9], the inhibition came to 2.6%. Moreover, the selectivity ratio in [13] is more than 7.18.

On to `CCC(CO)NC(=O)/C=C/c1ccc(Cl)cc1` (stereo not drawn), for which the result in the series on Mus musculus [16], in the series with Rattus norvegicus [19] and in the series with Rattus norvegicus [23] was Active. In addition, the Activity result in the series on Mus musculus [17] is reported as “Non-Toxic”. In addition, the values for the inhibition (in series [18]; in the series listed under Rattus norvegicus [20]; in series [22]) were -1.6%, -8.2% and -7.3%, respectively. In the series with Rattus norvegicus [21], the Time was 4 h.

For the compound `CC(O)CNC(=O)/C=C/c1ccc(Cl)cc1` (stereo not drawn), the inhibition was -10% in series [24]; -9.8% in [25]; -5.8% in [26]; -2.8% in [27]; -9.8% in [28]. Besides, the ED50 with Mus musculus [4] came out at 120 mg/kg. Also, the Time in the series on Mus musculus [7] came to 1 h. The result with Rattus norvegicus [29], in the series with Mus musculus [30] and in the series with Mus musculus [31] was Active.

These data come from ChEMBL document CHEMBL3875185, “Structure-anticonvulsant activity studies in the group of (E)-N-cinnamoyl aminoalkanols derivatives monosubstituted in phenyl ring with 4-Cl, 4-CH3 or 2-CH3” (Bioorg Med Chem, 2017).
